Laboratory results from PMC4287394 (Clinical cancer research : an official journal of the …, 2014).

Tests used:
[1] = test system: purified recombinant human PI3K p110γ; details: read-out: IC50 p110γ; purified recombinant human PI3K isoforms; cited from earlier work
PI3K signaling = assay: Multimodal pharmacodynamic assessment; format: in vivo, human; details: regardless of molecular genetic status

In the case of CS(=O)(=O)N1CCN(Cc2cc3nc(-c4cccc5[nH]ncc45)nc(N4CCOCC4)c3s2)CC1 [pictilisib, 2-(1H-indazol-4-yl)-6-(4-methanesulfonyl-piperazin-1-ylmethyl)-4-morpholin-4-yl-t hieno[3,2-d]pyrimidine], the IC50 [1] is given as 0.075 µM and the “Dose levels with on-target pharmacodynamic activity” value (PI3K signaling) is given as at least 100 mg.
